Measured values: paper PMC1192819, “Molecular cloning and characterization of a nuclear androgen receptor activated by 11-ketotestosterone” (Reproductive biology and endocrinology : RB&E, 2005)

Legend:
[1] = target: AR in stickleback kidney cytosolic fraction; test: Saturation and Scatchard analysis, kidney cytosolic fraction; type: binding, three-spined stickleback (Gasterosteus aculeatus); settings: overnight 4°C
Procedure: Aliquots (250 μl) of the nuclear or cytosolic preparations were added to each tube, the tubes were vortexed and incubated over night at 4°C. To stop the binding reaction, 250 μl DCC was added to each tube. The tubes were vortexed and the suspensions were incubated for 5 min at 4°C, before spinning at 3,000 × g at 4°C for 5 min. The supernatants were decanted into 7 ml scintillation vials, 5 ml of standard scintillation cocktail was added and the radioactivity in each sample was measured in a liquid scintillation counter (Beckman LS 6000SC, Beckman Instruments, Fullerton, CA). The procedure used for the expressed recombinant ARβ2 was modified as follows. […] The expressed proteins were diluted 1:100 and aliquots (100 μl) were added to each reaction tube. The tubes were vortexed and incubated over night at 4°C. To stop the binding reaction, 200 μl DCC was added to each tube. The tubes were vortexed and the suspension were incubated for 5 min at 4°C, before spinning at 3,000 × g at 4°C for 5 min. 250 μl of the supernatant was transferred into 5 ml scintillation vials and 4 ml of standard scintillation cocktail was added before the radioactivity in each sample was measured in a liquid scintillation counter (Wallac 1409, Wallac Oy, Turku, Finland).

[2] = target: recombinant stickleback ARβ2 (Gasterosteus aculeatus, UniProt Q801Z2); settings: recombinant ARβ2, reticulocyte extract
Sequence of recombinant stickleback ARβ2 (Q801Z2 1-735): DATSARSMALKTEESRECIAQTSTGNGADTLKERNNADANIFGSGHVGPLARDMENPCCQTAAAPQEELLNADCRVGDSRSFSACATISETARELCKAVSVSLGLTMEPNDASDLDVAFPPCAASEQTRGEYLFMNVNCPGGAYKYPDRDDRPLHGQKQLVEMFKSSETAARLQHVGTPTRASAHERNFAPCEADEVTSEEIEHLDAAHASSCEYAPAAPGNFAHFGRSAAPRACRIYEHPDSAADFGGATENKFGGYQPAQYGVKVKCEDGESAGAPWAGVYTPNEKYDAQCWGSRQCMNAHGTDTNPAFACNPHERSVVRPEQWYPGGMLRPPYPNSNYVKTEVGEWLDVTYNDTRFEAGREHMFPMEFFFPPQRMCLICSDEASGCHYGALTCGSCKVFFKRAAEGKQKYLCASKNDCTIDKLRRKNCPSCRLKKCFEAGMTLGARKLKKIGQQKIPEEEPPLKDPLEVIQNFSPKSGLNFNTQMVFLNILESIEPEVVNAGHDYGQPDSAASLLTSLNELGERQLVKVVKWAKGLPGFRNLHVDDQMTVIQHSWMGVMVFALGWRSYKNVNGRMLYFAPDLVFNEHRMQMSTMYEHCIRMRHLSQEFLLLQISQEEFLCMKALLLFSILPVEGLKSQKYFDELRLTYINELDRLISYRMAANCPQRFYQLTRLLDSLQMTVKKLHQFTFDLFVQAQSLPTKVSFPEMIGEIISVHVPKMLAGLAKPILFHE
Procedure: The excised AR pBK CMV clones were digested with XbaI and EcoRI and the inserts were gel purified prior to ligation into the pCMV-TNT vector (Promega) between XbaI and EcoRI. […] AR was expressed by introducing the pCMV-TNT into the TNT coupled reticulocyte lysate system (Promega) according to the manufacturer's instructions. The size of the expressed products was determined by addition of S^35-methionin to the reticulocyte lysate system. The obtained protein suspension was analyzed on a denaturing 8% SDS PAGE and the sizes were determined using prestained SDS-PAGE broad range protein molecular weight standard (Bio-Rad) and a control luciferase protein of 62 kDa included in the reticulocyte lysate system (Promega). […]
Aliquots (250 μl) of the nuclear or cytosolic preparations were added to each tube, the tubes were vortexed and incubated over night at 4°C. […] The supernatants were decanted into 7 ml scintillation vials, 5 ml of standard scintillation cocktail was added and the radioactivity in each sample was measured in a liquid scintillation counter (Beckman LS 6000SC, Beckman Instruments, Fullerton, CA). […] 250 μl of the supernatant was transferred into 5 ml scintillation vials and 4 ml of standard scintillation cocktail was added before the radioactivity in each sample was measured in a liquid scintillation counter (Wallac 1409, Wallac Oy, Turku, Finland).

[3] = test system: AR in three-spined stickleback kidney cytosolic extracts; settings: 4°C
Procedure: The reaction was terminated at different time-points ranging between 1 min and 24 h. The specific binding at each time-point was determined as described above.

SMILES: C[C@]12CCC(=O)C[C@@H]1CC[C@@H]1[C@@H]2CC[C@]2(C)[C@@H](O)CC[C@@H]12 [[^3H]-DHT]
- Kd [1]: 18.7 ± 3.21 nM
- Bmax [2]: 0.324 ± 0.04 pmol/mg protein
- association t1/2 ([3]; 4 nM tracer): 3.3 min
- time to reach binding equilibrium ([3]; 4 nM tracer): 20 min
- dissociation t1/2 ([3]; 100-fold excess unlabelled DHT): 80 min
- time to complete dissociation ([3]; 100-fold excess unlabelled DHT): ≤ 8 h
